Measured values taken from patent US9487749B2 (priority 2009, dated 2016).
Values joined by “and” are separate entries in the source; they are usually repeats but may differ in a detail not shown here. Identical values can stand only once.

How the values were obtained:
[1] = test system: E. coli; assay: E. coli log growth in MSM supplemented Müller-Hinton media with or without NaCl; assay type: cell-based, Escherichia coli
Experimental: Standard Müller-Hinton media was compared to Müller-Hinton media supplemented with NaCl to the same level as the saline-based media of Example 4. […] Aliquots of each culture were taken at 24 and 48 hours, as well as 7 days.

[2] = test system: Bifidobacterium bifidum; assay: Growth of Bifidobacterium bifidum in MRS broth fortified with MSM (anaerobic); assay type: cell-based
Experimental: Each organism (Lactobacillus rhamnosus, Lactobacillus acidophilus, and Bifidobacterium bifidum) was grown in MRS bacterial growth medium (broth) and plated on MRS agar at different time intervals. Results are expressed in colony forming units per milliliter (cfu/mL). […] All bacterial organisms were incubated at 35° C. +/−2° C. for the duration of the study. […] All preparations and plating were conducted at room temperature. […] Test samples were plated in triplicate at each test date and the averages are reported. Bifidobacterium bifidum, a common microbe used in probiotics, was also tested. All Bifidobacterium samples were incubated under anaerobic conditions.

[3] = test system: Herpes Simplex Virus type 1 (ATCC #VR-260); assay type: cell-based
[4] = test system: Escherichia coli; assay: USP <51> AET in cosmetic cream / cosmetic compositions, 28 days; assay type: cell-based; conditions: for Microbial growth (count): 48 hrs-28 days; for Log Reduction from Initial Microorganism Inoculum: 14 Days, 28 Days
Source text: (§1) The cosmetic cream matrix into which the MSM was incorporated was preservative free. An additional cream, with a preservative, was also spiked with E. coli and evaluated.

[5] = test system: Candida albicans; assay: as above; assay type: cell-based; conditions: for Microbial growth (count): 48 hrs-28 days; for Log Reduction from Initial Microorganism Inoculum: 14 Days, 28 Days
Source text: as §1

[6] = test system: Aspergillus niger; assay: as above; assay type: cell-based; conditions: 10% MSM in cosmetic cream without preservative, 48 hrs-28 days
Source text: as §1

[7] = test system: Pseudomonas aeruginosa; assay: as above; assay type: cell-based; conditions: for Microbial growth (count): 48 hrs-28 days; for Log Reduction from Initial Microorganism Inoculum: 14 Days, 28 Days
Source text: as §1

[8] = test system: Staphylococcus aureus; assay: as above; assay type: cell-based; conditions: for Log Reduction from Initial Microorganism Inoculum: 14 Days, 28 Days
Source text: as §1

[9] = test system: Lactobacillus acidophilus ATCC #4356; assay: Lactobacillus acidophilus growth and recovery in a simulated intestinal tract environment; assay type: cell-based
[10] = test system: Candida albicans; assay: USP Antimicrobial Effectiveness Test (AET) of MSM supplemented TSB; assay type: cell-based; parameters: key to AET test results (microorganism count): Colonies too numerous to count (TNTC); conditions: for Log Reduction from Initial Microorganism Inoculum: 1:10 dilution of MSM, 14 Days, 28 Days; for AET test results (microorganism count): 48 hrs
Source text: (§2) Compounds or formulated products having antimicrobial activity may be evaluated with the United States Pharmacopeia (USP) Antimicrobial Effectiveness Test (AET). The AET involves the addition of specified microorganisms (Candida albicans, Aspergillus niger, Escherichia coli, Pseudomonas aeruginosa and Staphylococcus aureus) directly to a test product at relatively high concentrations to simulate contamination. The product is held for one month, with weekly analysis of microorganism levels. […] For yeast and mold, no increase from the initial inoculums level is permitted. […] Inoculations were made using Candida albicans, Aspergillus niger, Escherichia coli, Pseudomonas aeruginosa and Staphylococcus aureus. Tryptic soy broth (TSB) was used as the culturing media. […] The inoculated media was held for one month, during which time the added microorganisms were enumerated weekly to determine if they were growing, dying off, or remaining near the initial inoculation level. […] The acceptance criteria for antimicrobial effectiveness are described in detail in the USP, herein incorporated by reference.

[11] = test system: Aspergillus niger; assay: as above; assay type: cell-based; parameters: key to AET test results (microorganism count): Colonies too numerous to count (TNTC); conditions: for Log Reduction from Initial Microorganism Inoculum: 1:10 dilution of MSM, 14 Days, 28 Days; for AET test results (microorganism count): 48 hrs
Source text: as §2

[12] = test system: Staphylococcus aureus; assay: as above; assay type: cell-based; parameters: key to AET test results (microorganism count): Colonies too numerous to count (TNTC); conditions: for Log Reduction from Initial Microorganism Inoculum: 1:10 dilution of MSM, 14 Days, 28 Days; for AET test results (microorganism count): 48 hrs
Source text: as §2

[13] = 10% MSM in Preservative Free Cosmetic Composition #1, 48 hours after inoculation
[14] = 10% MSM in Preservative Free Cosmetic Composition #1, 7 days after inoculation
[15] = 10% MSM in cosmetic cream without preservative
[16] = 10% MSM in preservative-free jojoba cosmetic cream
[17] = 10% MSM, Preservative Free Cosmetic Composition #1
[18] = 10% MSM, Preservative Free Cosmetic Composition #2

SMILES: CS(C)(=O)=O [MSM, Methylsulfonylmethane]
- log reduction in E. coli ([1]; FMHS media, 12% MSM, 7 days): 3 log
- reduction of E. coli growth ([1]; MSM concentrations greater than 13%, 48 hours): 1-2 logs
- Log growth of E. coli ([1]; after 24 hours, FMH (flaked MSM, Müller-Hinton), rows 16-5% MSM): 6.2 log
- log reduction from the initial inoculum ([1]; all media, MSM concentrations greater than 13%, 24 hours): approximately 1 log
- log increase of Bifidobacterium ([2]; 0.04% MSM): One
- log higher than the 0% MSM control ([2]; 0.04% and 0.2% MSM samples, 48 hours): 1 log
- log increase of Bifidobacterium ([2]; 0.2% MSM): 2 log
- Average TCID50 [3]: 3.17 log10 and 4.67 log10 and 4.33 log10 and 4.08 log10 and 4.83 log10 and 5.00 log10 and 5.42 log10
- reduction of virus population [3]: more than 1.0 log10
- Microbial growth (count) [4, 13]: 5.4 × 10^4
- Microbial growth (count) [4, 14]: <10
- Microbial growth (count) [4, 15]: <10
- Log Reduction from Initial Microorganism Inoculum [4, 16]: 5.7 log
- Log Reduction from Initial Microorganism Inoculum [4, 17]: 5.8 log
- Log Reduction from Initial Microorganism Inoculum [4, 18]: 5.8 log
- Microbial growth (count) ([5]; 10% MSM in Preservative Free Cosmetic Composition #2, after 48 hours incubation): 9.0 × 10^2
- Microbial growth (count) ([5]; 10% MSM in Preservative Free Cosmetic Composition #2, after 7 days incubation): <10
- Microbial growth (count) [5, 15]: <10
- Log Reduction from Initial Microorganism Inoculum [5, 16]: 4.3 log
- Log Reduction from Initial Microorganism Inoculum [5, 17]: 5.3 log
- Log Reduction from Initial Microorganism Inoculum [5, 18]: 5.3 log
- Microbial growth (count) ([6]; 48 hours after inoculation): 8 × 10^3
- Microbial growth (count) ([6]; 14 days after inoculation): 6 × 10^3
- Microbial growth (count) ([6]; 28 days after inoculation): 5 × 10^2
- Microbial growth (count) [7, 13]: 7.3 × 10^3
- Microbial growth (count) [7, 14]: <10
- Microbial growth (count) [7, 15]: <10
- Log Reduction from Initial Microorganism Inoculum [7, 16]: 5.3 log
- Log Reduction from Initial Microorganism Inoculum [7, 17]: 5.8 log
- Log Reduction from Initial Microorganism Inoculum [7, 18]: 5.8 log
- Microbial growth (count) ([8]; 10% MSM in cosmetic cream without preservative, 48 hrs-28 days): <10
- Log Reduction from Initial Microorganism Inoculum [8, 16]: 5.6 log
- Log Reduction from Initial Microorganism Inoculum [8, 17]: 5.7 log
- Log Reduction from Initial Microorganism Inoculum [8, 18]: 5.7 log
- log increase in the next 8 hours after hour 48 ([9]; 5.0% MSM): 3.16 logs
- time to substantial growth rate increase after hour 24 ([9]; 5.0% MSM): 6 h
- log growth of Lactobacillus acidophilus ([9]; 5.0% MSM, hour 36): 8.65 logs
- Log Growth of Lactobacillus acidophilus ([9]; 5.0% MSM, 20 min Gastric): <1.00 log
- Log Growth of Lactobacillus acidophilus ([9]; 5.0% MSM, Hour 3, simulated intestinal fluid): 1.62 log
- Log Growth of Lactobacillus acidophilus ([9]; 5.0% MSM, Hour 8, simulated intestinal fluid): 2.33 log
- Log Growth of Lactobacillus acidophilus ([9]; 5.0% MSM, Hour 24, simulated intestinal fluid): 6.39 log
- Log Growth of Lactobacillus acidophilus ([9]; 5.0% MSM, Hour 30, simulated intestinal fluid): 6.63 log
- Log Growth of Lactobacillus acidophilus ([9]; 5.0% MSM, Hour 36, simulated intestinal fluid): 8.65 log
- Log Growth of Lactobacillus acidophilus ([9]; 5.0% MSM, Hour 48, simulated intestinal fluid): 10.17 log
- Log Growth of Lactobacillus acidophilus ([9]; 5.0% MSM, Hour 54, simulated intestinal fluid): 13.33 log
- Log Growth of Lactobacillus acidophilus ([9]; 5.0% MSM, Hour 60, simulated intestinal fluid): 12.76 log
- Log Growth of Lactobacillus acidophilus ([9]; 5.0% MSM, Hour 72, simulated intestinal fluid): 12.78 log
- Log Growth of Lactobacillus acidophilus ([9]; 5.0% MSM, Starting Inoculum (milk)): 7.02 log
- log increase in the next 8 hours after hour 48 ([9]; […] MSM): 2.07 logs
- Log Growth of Lactobacillus acidophilus ([9]; […] MSM, 20 min Gastric): <1.00 log
- Log Growth of Lactobacillus acidophilus ([9]; […] MSM, Starting Inoculum (milk)): 6.86 log
- Log Reduction from Initial Microorganism Inoculum ([10]; after 14 days): 4.2 log
- Log Reduction from Initial Microorganism Inoculum ([10]; after 28 days): 4.4 log
- AET test results (microorganism count) ([10]; 1:100 dilution of MSM in TSB): TNTC
- AET test results (microorganism count) ([10]; 1:1000 dilution of MSM in TSB): TNTC
- Log Reduction from Initial Microorganism Inoculum ([11]; after 14 days): 4.3 log
- Log Reduction from Initial Microorganism Inoculum ([11]; after 28 days): 4.5 log
- AET test results (microorganism count) ([11]; 1:100 dilution of MSM in TSB): TNTC*
- AET test results (microorganism count) ([11]; 1:1000 dilution of MSM in TSB): TNTC*
- Log Reduction from Initial Microorganism Inoculum ([12]; after 14 days): 4.5 log
- Log Reduction from Initial Microorganism Inoculum ([12]; after 28 days): 4.7 log
- AET test results (microorganism count) ([12]; 1:100 dilution of MSM in TSB): TNTC
- AET test results (microorganism count) ([12]; 1:1000 dilution of MSM in TSB): TNTC
